The values below come from patent US9073855B2, “BCL-2 selective apoptosis-inducing agents for the treatment of cancer and immune diseases” (AbbVie Inc., priority 2008, dated 2015).

A value given as a limit tells only on which side of the number the result lay.

One experiment deals with GST-Bcl-2 (Homo sapiens, UniProt P10415). As to the kind of experiment: TR-FRET binding assay, GST-Bcl-2 with F-Bak peptide probe. To be noted: TR-FRET Binding Affinity, GST-Bcl-2, F-Bak peptide probe. A digest of the protocol: (§1)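 Displacement of a fluorescein-labelled Bak peptide from the GST-tagged protein was followed by time-resolved FRET with a terbium anti-GST donor after 3 h incubation at room temperature. Inhibition constants were calculated with Wang's equation.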
In general terms: TR-FRET usually uses a lanthanide donor and a delayed reading to cut background.

The next experiment addresses GST-Bcl-XL (Homo sapiens, UniProt Q07817). As to the kind of experiment: TR-FRET binding assay, GST-Bcl-XL with F-Bak peptide probe. To be noted: TR-FRET Binding Affinity, GST-Bcl-XL, F-Bak peptide probe. A digest of the protocol:
as §1

The test system of the next experiment is Canine platelets. Nature of the experiment: Platelet cell viability assay (platelet-rich plasma, Cell Titer Glo). The format is cell-based. As to conditions: Canis lupus familiaris, 5 h, isolated canine platelets ex vivo, five hours at 37° C. A digest of the protocol: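 Isolated canine platelets were incubated ex vivo with a range of compound concentrations. After 20 min equilibration at room temperature, viability was measured by Cell Titer Glo luminescence.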
(In general: In ATP-based viability assays light output follows the ATP content of the culture.)

The next experiment deals with FL5.12/Bcl-2 cells. As to the kind of experiment: FL5.12/Bcl-2 cell viability assay under IL-3 withdrawal (CellTitre Glo). The format is cell-based, murine. To be noted: Mus musculus, IL-3 withdrawn 48 hrs, then 24 hrs with compound. A digest of the protocol:
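IL-3 withdrawal 48 hrs (no WEHI-3B medium), then compound 24 hrs, various concentrations; 37° C, 5% CO2; readout CellTitre Glo. Murine prolymphocytic FL5.12 stably overexpressing Bcl-2.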

GST-Bcl-XL, sequence (Q07817 whole entry): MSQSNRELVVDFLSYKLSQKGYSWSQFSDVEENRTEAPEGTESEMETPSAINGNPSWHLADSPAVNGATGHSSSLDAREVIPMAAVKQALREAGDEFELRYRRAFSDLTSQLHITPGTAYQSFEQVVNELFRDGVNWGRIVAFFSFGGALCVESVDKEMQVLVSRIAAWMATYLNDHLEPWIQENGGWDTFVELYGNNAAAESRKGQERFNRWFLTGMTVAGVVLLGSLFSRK
GST-Bcl-2, sequence (P10415 whole entry): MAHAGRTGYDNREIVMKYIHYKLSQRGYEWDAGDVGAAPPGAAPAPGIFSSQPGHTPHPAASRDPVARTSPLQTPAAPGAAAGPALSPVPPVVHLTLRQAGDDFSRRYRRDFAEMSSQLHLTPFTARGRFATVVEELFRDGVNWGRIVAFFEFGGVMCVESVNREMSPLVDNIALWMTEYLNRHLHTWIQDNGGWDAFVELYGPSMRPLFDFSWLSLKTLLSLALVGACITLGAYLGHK

In the case of `CN1CCC(Nc2ccc(S(=O)(=O)NC(=O)c3ccc(N4CCN(Cc5ccccc5-c5ccc(Cl)cc5)CC4)cc3Oc3ccccc3)cc2[N+](=O)[O-])CC1` [Example 89, 4-{4-[(4′-chloro-1,1′-biphenyl-2-yl)methyl]piperazin-1-yl}-N-({4-[(1-methylpiperidin-4-yl)amino]-3-nitrophenyl}sulfonyl)-2-phenoxybenzamide], the Ki (commonly a measure of affinity in units of concentration, obtained from inhibition or displacement) stood at 0.129 nM on GST-Bcl-2 and 7.45 nM at GST-Bcl-XL. Moreover, the EC50 (in general, the concentration at which the effect is half-maximal) in the experiment on Canine platelets was 32000 nM; in the experiment on FL5.12/Bcl-2 cells, 65 nM.
For `CN(C)CCCOc1ccc(S(=O)(=O)NC(=O)c2ccc(N3CCN(Cc4ccccc4-c4ccc(Cl)cc4)CC3)cc2Oc2ccccc2)cc1[N+](=O)[O-]` [Example 94, 4-{4-[(4′-chloro-1,1′-biphenyl-2-yl)methyl]piperazin-1-yl}-N-({4-[3-(dimethylamino)propoxy]-3-nitrophenyl}sulfonyl)-2-phenoxybenzamide] the same measures were 0.07 nM, 2.32 nM, 23800 nM and 40 nM.
For `CN1CCN(CCCNc2ccc(S(=O)(=O)NC(=O)c3ccc(N4CCN(CC5=C(c6ccc(Cl)cc6)CC(C)(C)CC5)CC4)cc3Oc3ccc4[nH]ccc4c3)cc2[N+](=O)[O-])CC1` [Example 96, 4-(4-{[2-(4-chlorophenyl)-4,4-dimethylcyclohex-1-en-1-yl]methyl}piperazin-1-yl)-2-(1H-indol-5-yloxy)-N-[(4-{[3-(4-methylpiperazin-1-yl)propyl]amino}-3-nitrophenyl)sulfonyl]benzamide] the same measures were 0.047 nM, 8.78 nM, 22300 nM and 11 nM.
Regarding `CC1(C)CCC(CN2CCN(c3ccc(C(=O)NS(=O)(=O)c4ccc(NCCCN5CCCC5)c([N+](=O)[O-])c4)c(Oc4ccc5[nH]ccc5c4)c3)CC2)=C(c2ccc(Cl)cc2)C1` [Example 97, 4-(4-{[2-(4-chlorophenyl)-4,4-dimethylcyclohex-1-en-1-yl]methyl}piperazin-1-yl)-2-(1H-indol-5-yloxy)-N-({3-nitro-4-[(3-pyrrolidin-1-ylpropyl)amino]phenyl}sulfonyl)benzamide], the Ki on GST-Bcl-2 came out at 0.027 nM; on GST-Bcl-XL it was 2.61 nM. In addition, the EC50 worked out at 14100 nM in the experiment with Canine platelets and 13 nM with FL5.12/Bcl-2 cells.
The matching figures for `CN1CCN(CCCNc2ccc(S(=O)(=O)NC(=O)c3ccc(N4CCN(CC5=C(c6ccc(Cl)cc6)CC(C)(C)CC5)CC4)cc3Oc3cccc4[nH]ccc34)cc2[N+](=O)[O-])CC1` [Example 99, 4-(4-{[2-(4-chlorophenyl)-4,4-dimethylcyclohex-1-en-1-yl]methyl}piperazin-1-yl)-2-(1H-indol-4-yloxy)-N-[(4-{[3-(4-methylpiperazin-1-yl)propyl]amino}-3-nitrophenyl)sulfonyl]benzamide]: 0.04 nM, 5.53 nM, 21700 nM and 9 nM.
For `CN(C)CCCOc1ccc(S(=O)(=O)NC(=O)c2ccc(N3CCN(CC4=C(c5ccc(Cl)cc5)CC(C)(C)CC4)CC3)cc2Oc2ccc3[nH]ccc3c2)cc1[N+](=O)[O-]` [Example 100, 4-(4-{[2-(4-chlorophenyl)-4,4-dimethylcyclohex-1-en-1-yl]methyl}piperazin-1-yl)-N-({4-[3-(dimethylamino)propoxy]-3-nitrophenyl}sulfonyl)-2-(1H-indol-5-yloxy)benzamide] the same measures were 0.116 nM, 8.29 nM, 31200 nM and 15 nM.
For `CC1(C)CCC(CN2CCN(c3ccc(C(=O)NS(=O)(=O)c4ccc(NCCCN5CCCC5)c([N+](=O)[O-])c4)c(Oc4cccc5[nH]ccc45)c3)CC2)=C(c2ccc(Cl)cc2)C1` [Example 102, 4-(4-{[2-(4-chlorophenyl)-4,4-dimethylcyclohex-1-en-1-yl]methyl}piperazin-1-yl)-2-(1H-indol-4-yloxy)-N-({3-nitro-4-[(3-pyrrolidin-1-ylpropyl)amino]phenyl}sulfonyl)benzamide] the same measures were 0.035 nM, 2.24 nM, 20200 nM and 20 nM.
With `CN1CCC(Nc2ccc(S(=O)(=O)NC(=O)c3ccc(N4CCN(CC5=C(c6ccc(Cl)cc6)CC(C)(C)CC5)CC4)cc3Oc3cccc4[nH]ccc34)cc2[N+](=O)[O-])CC1` [Example 103, 4-(4-{[2-(4-chlorophenyl)-4,4-dimethylcyclohex-1-en-1-yl]methyl}piperazin-1-yl)-2-(1H-indol-4-yloxy)-N-({4-[(1-methylpiperidin-4-yl)amino]-3-nitrophenyl}sulfonyl)benzamide], the Ki on GST-Bcl-2 worked out at 0.056 nM; at GST-Bcl-XL it was 117 nM. For the same molecule, the EC50 in the experiment on Canine platelets came out at 31400 nM; in the experiment with FL5.12/Bcl-2 cells, 14 nM.
For `CN1CCC(CNc2ccc(S(=O)(=O)NC(=O)c3ccc(N4CCN(CC5=C(c6ccc(Cl)cc6)CC(C)(C)CC5)CC4)cc3Oc3ccc4[nH]ccc4c3)cc2[N+](=O)[O-])CC1` [Example 104, 4-(4-{[2-(4-chlorophenyl)-4,4-dimethylcyclohex-1-en-1-yl]methyl}piperazin-1-yl)-2-(1H-indol-5-yloxy)-N-[(4-{[(1-methylpiperidin-4-yl)methyl]amino}-3-nitrophenyl)sulfonyl]benzamide] the same measures were 0.077 nM, 49.1 nM, above 50000 nM and 21 nM.
The matching figures for `CN1CCC(CNc2ccc(S(=O)(=O)NC(=O)c3ccc(N4CCN(CC5=C(c6ccc(Cl)cc6)CC(C)(C)CC5)CC4)cc3Oc3cccc4[nH]ccc34)cc2[N+](=O)[O-])CC1` [Example 105, 4-(4-{[2-(4-chlorophenyl)-4,4-dimethylcyclohex-1-en-1-yl]methyl}piperazin-1-yl)-2-(1H-indol-4-yloxy)-N-[(4-{[(1-methylpiperidin-4-yl)methyl]amino}-3-nitrophenyl)sulfonyl]benzamide]: 0.08 nM, 5.02 nM, 30300 nM and 13 nM.
For `CN1CCC(CNc2ccc(S(=O)(=O)NC(=O)c3ccc(N4CCN(CC5=C(c6ccc(Cl)cc6)CC(C)(C)CC5)CC4)cc3Oc3ccc4[nH]ccc4c3)cc2[N+](=O)[O-])(N(C)C)CC1` [Example 109, 4-(4-{[2-(4-chlorophenyl)-4,4-dimethylcyclohex-1-en-1-yl]methyl}piperazin-1-yl)-N-{[4-({[4-(dimethylamino)-1-methylpiperidin-4-yl]methyl}amino)-3-nitrophenyl]sulfonyl}-2-(1H-indol-5-yloxy)benzamide] the same measures were 0.161 nM, above 660 nM, above 50000 nM and 36 nM.
As to `CN(C)CCOc1ccc(-c2ccc(Cl)cc2)c(CN2CCN(c3ccc(C(=O)NS(=O)(=O)c4ccc(NCC5CCOCC5)c(S(=O)(=O)C(F)(F)F)c4)c(Oc4ccccc4)c3)CC2)c1` [Example 120, 4-[4-({4′-chloro-4-[2-(dimethylamino)ethoxy]-1,1′-biphenyl-2-yl}methyl)piperazin-1-yl]-2-phenoxy-N-({4-[(tetrahydro-2H-pyran-4-ylmethyl)amino]-3-[(trifluoromethyl)sulfonyl]phenyl}sulfonyl)benzamide], the figures for the Ki on GST-Bcl-2 and on GST-Bcl-XL were 0.443 nM and 99.6 nM, respectively. In addition, the EC50 in the experiment with Canine platelets was above 50000 nM; in the experiment with FL5.12/Bcl-2 cells, 319 nM.
For `CN(C)CCOc1ccc(-c2ccc(Cl)cc2)c(CN2CCN(c3ccc(C(=O)NS(=O)(=O)c4ccc(NCCCN5CCCC5)c([N+](=O)[O-])c4)c(Oc4ccccc4)c3)CC2)c1` [Example 121, 4-[4-({4′-chloro-4-[2-(dimethylamino)ethoxy]-1,1′-biphenyl-2-yl}methyl)piperazin-1-yl]-N-({3-nitro-4-[(3-pyrrolidin-1-ylpropyl)amino]phenyl}sulfonyl)-2-phenoxybenzamide] the same measures were 0.001 nM, 0.388 nM, 309 nM and 38 nM.
`CN(C)CCOc1cccc(-c2ccc(Cl)cc2)c1CN1CCN(c2ccc(C(=O)NS(=O)(=O)c3ccc(NCC4CCOCC4)c([N+](=O)[O-])c3)c(Oc3ccccc3)c2)CC1` [Example 122, 4-[4-({4′-chloro-3-[2-(dimethylamino)ethoxy]-1,1′-biphenyl-2-yl}methyl)piperazin-1-yl]-N-({3-nitro-4-[(tetrahydro-2H-pyran-4-ylmethyl)amino]phenyl}sulfonyl)-2-phenoxybenzamide]: the figures for the inhibition constant (Ki) at GST-Bcl-2 and on GST-Bcl-XL were 0.058 nM and 12.1 nM, respectively. Moreover, the values for the EC50 in the experiment on Canine platelets and in the experiment with FL5.12/Bcl-2 cells were above 50000 nM and 40 nM, respectively.
`CN(C)CCOc1cccc(-c2ccc(Cl)cc2)c1CN1CCN(c2ccc(C(=O)NS(=O)(=O)c3ccc(NCCCN4CCCC4)c([N+](=O)[O-])c3)c(Oc3ccccc3)c2)CC1` [Example 123, 4-[4-({4′-chloro-3-[2-(dimethylamino)ethoxy]-1,1′-biphenyl-2-yl}methyl)piperazin-1-yl]-N-({3-nitro-4-[(3-pyrrolidin-1-ylpropyl)amino]phenyl}sulfonyl)-2-phenoxybenzamide]: the Ki is 0.015 nM at GST-Bcl-2 and 1.37 nM on GST-Bcl-XL. In addition, the results for the EC50 in the experiment on Canine platelets and with FL5.12/Bcl-2 cells were 2810 nM and 87 nM, respectively.
